Measurements taken from paper PMC9268515, “UGT1A1 and UGT1A9 Are Responsible for Phase II Metabolism of Tectorigenin and Irigenin In Vitro” (Molecules, 2022).

Biological target: T1, UGT2B17 (Homo sapiens, UniProt O75795)
T1 construct: purchased BD Biosciences (Woburn, MA, USA)
T1 sequence (O75795 24-530): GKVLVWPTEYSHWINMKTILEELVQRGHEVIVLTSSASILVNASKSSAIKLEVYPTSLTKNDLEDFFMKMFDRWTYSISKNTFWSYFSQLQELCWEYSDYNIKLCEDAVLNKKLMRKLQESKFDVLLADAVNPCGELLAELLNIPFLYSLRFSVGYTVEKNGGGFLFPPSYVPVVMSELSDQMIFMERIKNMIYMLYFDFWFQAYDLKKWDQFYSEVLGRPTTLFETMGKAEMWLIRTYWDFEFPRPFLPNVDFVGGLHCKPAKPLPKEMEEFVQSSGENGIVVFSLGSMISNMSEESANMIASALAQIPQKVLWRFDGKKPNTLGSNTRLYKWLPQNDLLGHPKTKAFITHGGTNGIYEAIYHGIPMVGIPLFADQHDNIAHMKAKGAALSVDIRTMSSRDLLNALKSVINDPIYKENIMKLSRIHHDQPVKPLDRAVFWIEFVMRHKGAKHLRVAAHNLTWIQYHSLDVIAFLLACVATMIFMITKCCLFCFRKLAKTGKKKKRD
Assay: Recombinant UGT reaction screening, UGT2B17
Assay type: in vitro ADME
Experimental: UGT reaction screening of tectorigenin and irigenin was conducted using nine commercially available human UGTs (UGT1A1/1A3/1A4/1A6/1A9/2B4/2B7/2B15/2B17). Furthermore, we studied the enzymatic kinetic characteristics of tectorigenin and irigenin using UGT1A1 and UGT1A9. Six concentrations of tectorigenin and irigenin (1, 3, 10, 30, 100, and 300 μM) were incubated in triplicate in order to obtain the enzyme kinetic characteristics of tectorigenin and irigenin glucuronide.

- Activity in glucuronidation of tectorigenin: none
SMILES: COc1c(O)cc2occ(-c3ccc(O)cc3)c(=O)c2c1O [Tectorigenin, 5,7,4′-trihydroxyl-6-methoxyl isoflavone]
